Data as given in BindingDB's records for doi:10.1021/jm030817d (Glaxosmithkline Pharmaceuticals, 2003).

molecular target: D(3) dopamine receptor (Homo sapiens, UniProt P35462); assay: Binding affinity against human Dopamine receptor D3 expressed in CHO cells by using [125I]iodosulpiride as radioligand
Sequence (P35462 as listed by the source): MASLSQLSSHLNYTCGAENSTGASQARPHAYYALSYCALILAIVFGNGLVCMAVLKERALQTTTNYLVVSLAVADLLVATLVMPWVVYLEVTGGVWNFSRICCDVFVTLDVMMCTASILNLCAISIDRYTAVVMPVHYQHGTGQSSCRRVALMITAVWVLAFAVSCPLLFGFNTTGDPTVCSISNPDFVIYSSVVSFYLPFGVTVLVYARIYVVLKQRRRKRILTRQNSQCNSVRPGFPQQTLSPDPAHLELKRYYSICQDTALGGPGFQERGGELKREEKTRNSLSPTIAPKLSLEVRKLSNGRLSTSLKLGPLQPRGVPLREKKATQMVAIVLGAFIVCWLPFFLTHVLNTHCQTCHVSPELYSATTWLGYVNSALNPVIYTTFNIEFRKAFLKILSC

Ki, 1.3 nM:
CS(=O)(=O)c1ccc2c(c1)CCN(CC[C@H]1CC[C@H](NC(=O)C=Cc3ccccc3F)CC1)CC2
CS(=O)(=O)Oc1ccc2c(c1)CCN(CC[C@H]1CC[C@H](NC(=O)C=Cc3ccccc3F)CC1)CC2
COc1ccccc1C=CC(=O)N[C@H]1CC[C@H](CCN2CCc3ccc(OS(C)(=O)=O)cc3CC2)CC1
CS(=O)(=O)Oc1ccc2c(c1)CCN(CC[C@H]1CC[C@H](NC(=O)C=Cc3cccc(F)c3)CC1)CC2
